Measurements: patent US7834049B2, “Integrin expression inhibitor” (Eisai R&D Management Co., Ltd., priority 2000, dated 2010)
In brackets after ≈: the same amount, converted by molar mass.

Columns and labels:
integrin α5 [1] = experiment: Integrin expression inhibitory action on human colonic cancer cell line HCT116-C9; type: cell-based
integrin α2 [2] = experiment: as above; type: cell-based
integrin α3 [3] = experiment: Integrin expression inhibitory action on human normal fibroblast cell line WI38; type: cell-based; details: WI38, higher concentration than in Examples 1 and 2 (0.5 μg/ml and 5 μg/ml), 48 hours
integrin α4 = experiment: as above; type: cell-based; details: WI38, higher concentration than in Examples 1 and 2 (0.5 μg/ml and 5 μg/ml), 48 hours
integrin α6 [4] = experiment: Integrin expression inhibitory action on human colonic cancer cell line HCT116-C9; type: cell-based
Description: [Worded in the source for another cell line; this cell line is reported under the same test.] (§1) Human umbilical venous endothelial cells (HUVEC) of 5×10^5 in number were seeded in a 75 cm^2 cell culture bottle and then cultured using an EGM medium (Sanko Junyaku) at 37° C. in a CO2 incubator. Then, after 3 hours, the EGM medium was exchanged for the same medium including compound A, which was then cultured for further 48 hours. Next, the cells were collected and washed with a bovine serum albumin-containing phosphate buffer solution and the above buffer solution containing various anti-human integrin mouse antibodies was added to the cells and the solution containing cells was allowed to stand at 4° C. for 30 minutes. After washed, FITC connective anti-mouse IgG antibody was added to the cells, which was then allowed to stand for 30 minutes and washed again. Next, the cells were fixed and the amount of antibody connected per cell was measured as the amount of FITC by using a flow cytometer.
(§2) The integrin expression inhibitory action of the compound A on the above cells was examined in the same manner as in Example 1.

integrin β1 [5] = experiment: Integrin expression inhibitory action on human normal fibroblast cell line WI38; type: cell-based; details: WI38, higher concentration than in Examples 1 and 2 (0.5 μg/ml and 5 μg/ml), 48 hours
Description: [Worded in the source for another cell line; this cell line is reported under the same test.] as §1, §2

integrin α5 [6] = experiment: as above; type: cell-based; details: WI38, higher concentration than in Examples 1 and 2 (0.5 μg/ml and 5 μg/ml), 48 hours
Description: [Worded in the source for another cell line; this cell line is reported under the same test.] as §1, §2

integrin α6 [7] = experiment: as above; type: cell-based; details: WI38, higher concentration than in Examples 1 and 2 (0.5 μg/ml and 5 μg/ml), 48 hours
Description: [Worded in the source for another cell line; this cell line is reported under the same test.] as §1, §2

integrin α2 [8] = experiment: as above; type: cell-based; details: WI38, higher concentration than in Examples 1 and 2 (0.5 μg/ml and 5 μg/ml), 48 hours
Description: [Worded in the source for another cell line; this cell line is reported under the same test.] as §1, §2

integrin α3 [9] = experiment: Integrin expression inhibitory action on human colonic cancer cell line HCT116-C9; type: cell-based
[10] = system: Human umbilical venous endothelial cells (HUVEC); experiment: Antiangiogenic effect-2: HUVEC tube formation between collagen layers; type: cell-based; details: 96 h, HUVEC in type I collagen, 10 ng/ml EGF and 20 ng/ml bFGF, cultured 4 days, read-out: IC50, area of the formed tube
Description: 0.4 ml of type I collagen was added to a 24-well plate and solidified. Human umbilical venous endothelial cells (HUVEC) of 8×10^4 in number were seeded on the collagen and cultured overnight by using endothelial cells culture solution (Gibco BRL) containing 10 ng/ml EGF and 20 ng/ml bFGF. Next, the supernatant was removed and then 0.4 ml of the same collagen was overlaid. A culture solution containing 1.5 ml of the compound A was further added and the cells were cultured for 4 days. Thereafter, the area of the formed tube was measured quantitatively by image analysis.

integrin β1 [11] = experiment: Integrin expression inhibitory action on HUVEC (flow cytometer); type: cell-based, human; details: 0.05 μg/ml, 48 hours
Description: as §1

integrin β5 = experiment: as above; type: cell-based, human; details: 0.05 μg/ml, 48 hours
Description: as §1

integrin αv = experiment: as above; type: cell-based, human; details: 0.05 μg/ml, 48 hours
Description: as §1

integrin α5 [12] = experiment: as above; type: cell-based, human; details: 0.05 μg/ml, 48 hours
Description: as §1

integrin β3 = experiment: as above; type: cell-based, human; details: 0.05 μg/ml, 48 hours
Description: as §1

integrin α6 [13] = experiment: as above; type: cell-based, human; details: 0.05 μg/ml, 48 hours
Description: as §1

integrin α2 [14] = experiment: as above; type: cell-based, human; details: 0.05 μg/ml, 48 hours
Description: as §1

integrin α3 [15] = experiment: as above; type: cell-based, human; details: 0.05 μg/ml, 48 hours
Description: as §1

integrin β1 [16] = experiment: Integrin expression inhibitory action on human colonic cancer cell line HCT116-C9; type: cell-based
integrin α1 = experiment: Integrin expression inhibitory action on human normal fibroblast cell line WI38; type: cell-based; details: WI38, higher concentration than in Examples 1 and 2 (0.5 μg/ml and 5 μg/ml), 48 hours
[17] = system: human colic cancer cell strains (WiDr) chamber in C57 Black female mouse; experiment: Antiangiogenic effect-3 (in vivo): mouse air capsule method with WiDr chamber; details: dose of 50 mg/kg, orally administered, once a day; measured 4 days after chamber transplantation
Description: The above activity was evaluated using a method obtained by improving a mouse air capsule method (Sakamoto et al., Cancer Res., 1, 55-57, 1986) in part. Specifically, a millipore ring (Nippon Millipore) was sealed using a 0.22 μm membrane filter (HAWPO, Nippon Millipore) to form a chamber. 1×10^7 human colic cancer cell strains (WiDr) which were suspended in a phosphoric acid buffer solution were sealed into the chamber. Next, an air capsule was formed on a subcutaneous site of the backside of a C57 Black female mouse of 6 to 8 weeks age and the foregoing chamber was transplanted to the air capsule. The compound A was orally administered after about 6 hours passed after the transplantation was finished and afterwards administered in sequence once a day for 3 days. The erythrocytes of the mouse that was labeled with ^51Cr was injected from the tail vein 4 days after the chamber was transplanted. […] Then, a value obtained by subtracting the amount of blood measured in the case of the chamber including no cancer cell from the above amount of blood was determined as the amount of angiogenesis. […] If the results are evaluated by T/C (%): the amount of angiogenesis of the compound-administered groups/the amount of angiogenesis of the vehicle-administered groups×100, the compound A had such an effect as T/C=53% at a dose of 50 mg/kg.

integrin β4 = experiment: Integrin expression inhibitory action on human colonic cancer cell line HCT116-C9; type: cell-based
[18] = HCT116-C9, 0.05 μg/ml, 48 hours

## Cc1ccc(NS(=O)(=O)c2cccc(C#N)c2)c2[nH]cc(C#N)c12 [compound A, N-(3-Cyano-4-methyl-1H-indole-7-yl)-3-cyanobenzenesulfonamide]
Integrin α5 [1]; [18]
  expression of integrin α5: inhibited
Integrin α5 [1]; HCT116-C9, 0.5 μg/ml
  expression of integrin α5: inhibited
Integrin α2 [2]; [18]
  expression of integrin α2: inhibited
Integrin α2 [2]; HCT116-C9, 0.5 μg/ml
  expression of integrin α2: inhibited
Integrin α3 [3]
  expression of integrin α3: slightly inhibited
Integrin α4
  expression of integrin α4: slightly inhibited
Integrin α6 [4]; [18]
  expression of integrin α6: inhibited
Integrin α6 [4]; HCT116-C9, 0.5 μg/ml
  expression of integrin α6: inhibited
Integrin β1 [5]
  expression of integrin β1: no influence
Integrin α5 [6]
  expression of integrin α5: no influence
Integrin α6 [7]
  expression of integrin α6: no influence
Integrin α2 [8]
  expression of integrin α2: slightly inhibited
Integrin α3 [9]; [18]
  expression of integrin α3: inhibited
Integrin α3 [9]; HCT116-C9, 0.5 μg/ml
  expression of integrin α3: inhibited
[10]
  IC50: 0.12 µg/mL (≈ 0.357 µM)
Integrin β1 [11]
  expression of integrin β1 on the surface of the cell: inhibited
Integrin β5
  expression of integrin β5 on the surface of the cell: inhibited
Integrin αv
  expression of integrin αv on the surface of the cell: inhibited
Integrin α5 [12]
  expression of integrin α5 on the surface of the cell: inhibited
Integrin β3
  expression of integrin β3 on the surface of the cell: inhibited
Integrin α6 [13]
  expression of integrin α6 on the surface of the cell: inhibited
Integrin α2 [14]
  expression of integrin α2 on the surface of the cell: inhibited
Integrin α3 [15]
  expression of integrin α3 on the surface of the cell: inhibited
Integrin β1 [16]; [18]
  expression of integrin β1: inhibited
Integrin β1 [16]; HCT116-C9, 0.5 μg/ml
  expression of integrin β1: inhibited
Integrin α1
  expression of integrin α1: no influence
[17]
  T/C (%): amount of angiogenesis of compound-administered groups / vehicle-administered groups ×100: 53%
Integrin β4; [18]
  expression of integrin β4: inhibited
Integrin β4; HCT116-C9, 0.5 μg/ml
  expression of integrin β4: inhibited
